Data taken from publication PMC9925730, “Controlled sequential in situ self-assembly and disassembly of a fluorogenic cisplatin prodrug for cancer theranostics” (Nature Communications, 2023).
Values joined by “and” are separate entries in the source; they are usually repeats but may differ in a detail not shown here. Identical values can stand only once.

Tests used:
[1] = tested on: s.c. HeLa tumors; assay: Biodistribution study of Pt (ICP-OES); assay type: in vivo, mice; conditions: for organ with the highest ID% g^−1: 4 h post i.v. injection; for ID% g^−1 of Pt in tumors: s.c. HeLa tumors, 4 h post i.v. (100 μM, 200 μL), ICP-OES
[2] = tested on: orthotopic HepG2/Luc liver tumors; assay: Chemotherapy of orthotopic liver tumors (BL imaging, ex vivo BL and FL imaging);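 on tumor BL intensity of liver: bioluminescence quantified by ROI over liver region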; assay type: in vivo, mice; conditions: for tumor BL over the course of treatment: 2.25 mg kg^−1 Pt i.v. on day 0, 3, 6, 9, 12; for tumor BL intensity of liver: day 15; for Normalized FL intensity of mCy (ex vivo liver tumor, Fig. 5h): day 15, livers sprayed with P-CyPt 10 μM, normalized to PBS group; for Normalized BL intensity (ex vivo liver tumor, Fig. 5h): day 15, normalized to PBS group
Method: During the treatment, the body weights of mice were also measured every three days. On day 15, all mice were sacrificed, the whole liver were excised and photographed. Then, P-CyPt (10 μM) and D-luciferin (5 mM) were sprayed on the surface of each liver to performed ex vivo BL and NIR FL imaging. The BL images were acquired at 10 min using the BL imaging mode (Open), and the NIR FL images were acquired at 30 min, using a 660 nm excitation filter and a 750 ± 50 nm emission filter. The average BL and FL intensities were quantified by the ROIs measurement in the tumor region of liver using the Living Image Software (4.5.2, PerkinElmer, MA, U.S.A). Each experiment was conducted in four mice.

[3] = tested on: HeLa cells; assay: Flow cytometry analysis of HeLa cell death (Annexin V-FITC/PI); assay type: cell-based, human; conditions: 20 μM 2 h, then blank medium 48 h
Method: Flow cytometric analysis of HeLa cell death. (a) Gating strategy applied for flow cytometric analysis. (b) Representative flow cytometric analysis of HeLa cells by Annexin V-FITC/PI staining. HeLa cells were treated with PBS, CDDP, PtIVNPs or P-CyPt (20 μM) for 2 h, washed with cold PBS for three times, and then continued incubation in refresh blank DMEM medium for another 48 h. The cells were then stained with the Annexin V-FITC/PI kit, and analyzed by flow cytometry. One representative experiment out of two is shown.
After gentle washing with PBS (×1), the cells were detached from the plates with trypsin (500 μL per well), and the cell pellets were collected after centrifugation at 1000 161× g at 4 °C for 4 min. […] All assays were performed according to the manufacturer instructions, and the cell population was analyzed by annexin V-FITC and PI channels. […]

[4] = tested on: HeLa cells; assay: ICP-OES analysis of Pt in HeLa cells (uptake); assay type: cell-based; conditions: for Amount of Pt / Total amount of Pt: Supplementary Table S1
Method: Supplementary Table 1. ICP-OES analysis of Pt in HeLa cells. a Pt drugs Pt element per cell Percentage of Pt element […]
a HeLa cells were untreated or pre-treated with Na3VO4 (10 mM) for 20 min and then incubated with indicated Pt drug (10 μM) for 1 h. Then, the cells were trypsinized, collected, and the cell numbers were counted and digested with trace metal concentrated HNO3 (65~70%) and HCl (36~38%). The amount of Pt element was determined by […]
b Pt per cell represents the average amount of Pt element in one HeLa cell, which was calculated by dividing the total amount of Pt element in cells by the cell number. c Percentage of Pt taken up by cells was calculated by dividing the total amount of Pt elements in cells by the amount of Pt drugs added. Values denote mean ± s.d. (n = 3 independent experiments). […]
The cell […]
lysates were separated according to a reported fragmentation procedure to obtained different cell fractions: pellet sample N (nuclei) was separated by 600 g for 10 min; pellet sample L (lysosomes and mitochondria) separated by 15000 g for 5 min; pellet sample M (plasma membrane) separated 100000g for 60 min and the remaining supernatant was soluble portion cytoplasm named as cell pellet C (cytosol) Pellets N, L, and M were all re-dispersed in 200 μL of D.I. water. Then, the solutions were collected and dropped on a carbon-coated copper grid, followed by freeze-drying respectively. The samples were then examined in a JEM-2800 Transmission Electron […]
Quantitative analysis of Pt in HeLa cells and different subcellular organelles. HeLa […]
cells were seeded in 10-cm dishes at a density of 4×10^6 cells/well and allowed to grow overnight. The cells were incubated with P-CyPt (10 μM), PtIVNPs (10 μM) and CDDP (10 μM) for 1 h, respectively. In P-CyPt + Na3VO4 group, HeLa cells were first incubated with Na3VO4 (10 mM) for 20 min, and then incubated with P-CyPt (10 μM) for another 60 min. After being washed with PBS for three times, the cells were trypsinized, centrifuged and counted. For Pt distribution analysis, the cells were treated with P-CyPt (10 μM) or CDDP (10 μM) for 1 h, and then washed with PBS for three times, followed by incubation with fresh medium for another 24 h. After that, cells were washed gently with 2 mL PBS once. The cells were trypsinized, centrifuged and counted. The cell lysates were separated according to a reported fragmentation procedure to obtained different cell fractions, including N (nuclei), M (plasma membrane), L (lysosomes and mitochondria) and C (cytosol). The Cells and different cell fractions were digested with concentrated HNO3 (65~70%) and HCl (36~38%) at 90 °C for 24 h. The solution was diluted to 5 mL 2% HNO3 and 5% HCl solution, and the concentration of Pt element was measured by ICP-OES, which was further applied to calculate the amount of Pt in cells and subcellular organelles.
Flow cytometry analysis of HeLa cell death. Approximately 2×10^5 cells/well HeLa cells in 2 mL DMEM medium were seeded onto 6-well plates and allowed to grow overnight. The medium was replaced with 1 mL of fresh medium containing P-CyPt (20 μM), PtIVNPs (20 μM) and CDDP (20 μM), respectively. After 2 h incubation, medium was removed and cells were washed with PBS for three times. Then, cells were incubated with fresh medium for another 48 h to induce different levels of apoptosis.
After gentle washing with PBS (×1), the cells were detached from the plates with trypsin (500 μL per well), and the cell pellets were collected after centrifugation at […] at 4 °C for 4 min. After washing with PBS, the pellets were re-suspended in 500 μL PBS buffer and stained with the annexin V-FITC/PI double staining apoptosis detection kit for flow cytometry. All assays were performed according to the manufacturer instructions, and the cell population was analyzed by annexin V-FITC and PI channels. The count number for each flow cytometry analysis was ~5000 to […]

`[NH2][Pt]([NH2])([Cl])[Cl]` [CDDP, cisplatin] was tested, and the “organ with the highest ID% g^−1” value [1] was “kidneys”, the “ID% g^−1 of Pt in tumors” value [1] was ~ 3.6% and the “tumor BL over the course of treatment” value [2] was “markedly increased”. The “tumor BL intensity of liver” value [2] was 861747.5, the “Normalized FL intensity of mCy (ex vivo liver tumor, Fig. 5h)” value [2] was 0.90 and the “Normalized BL intensity (ex vivo liver tumor, Fig. 5h)” value [2] was 0.87. The apoptosis population [3] was ~ 5.20%.

For `CC1(C)C(/C=C/C2=C3Oc4cc(O)c(Cl)cc4C=C3CCC2)=[N+](CCCNC(=O)[C@@H](Cc2ccccc2)NC(=O)[C@@H](Cc2ccccc2)NC(=O)CCC(=O)[O][Pt]([NH2])([NH2])([OH])([Cl])[Cl])c2ccccc21` [CyPt], the “Amount of Pt” value ([4]; individual samples) was 1.96 fmol/cell and 1.6407 fmol/cell and 1.595 fmol/cell, the “Total amount of Pt” value ([4]; individual samples) was 2.9% and 2.428% and 2.36% and the “Amount of Pt” value ([4]; mean of 3 samples) was 1.7317 fmol/cell. For the same compound, the “Total amount of Pt” value ([4]; mean of 3 samples) was 2.563%.

With `CC1(C)C(/C=C/C2=C3Oc4cc(OP(=O)(O)O)c(Cl)cc4C=C3CCC2)=[N+](CCCNC(=O)[C@@H](Cc2ccccc2)NC(=O)[C@@H](Cc2ccccc2)NC(=O)CCC(=O)[O][Pt]([NH2])([NH2])([OH])([Cl])[Cl])c2ccccc21` [P-CyPt] the “Pt element per cell” value ([4]; HeLa cells, Pt drug 10 μM, 1 h, ICP-OES) was 24.60 ± 3.5 fmol/cell, the “Percentage of Pt element taken up by cells” value ([4]; HeLa cells, Pt drug 10 μM, 1 h, of Pt drug added) was 36.9 ± 5.3% and the “Amount of Pt” value ([4]; individual samples) was 20.8193 fmol/cell and 25.1404 fmol/cell and 27.8508 fmol/cell. The “Total amount of Pt” value ([4]; individual samples) was 31.255% and 37.742% and 41.811%, the “Amount of Pt” value ([4]; mean of 3 samples) was 24.6035 fmol/cell and the “Total amount of Pt” value ([4]; mean of 3 samples) was 36.936%. The “organ with the highest ID% g^−1” value [1] was “tumors”, the “ID% g^−1 of Pt in tumors” value [1] was ~20.3% and the “tumor BL over the course of treatment” value [2] was “did not obviously increase”. For the same compound, the “tumor BL intensity of liver” value [2] was 9376.5, the “metastatic tumor foci in the livers” value ([2]; day 15, ex vivo BL imaging) was “No metastatic tumor foci” and the “Normalized FL intensity of mCy (ex vivo liver tumor, Fig. 5h)” value [2] was 0.23. For the same compound, the “Normalized BL intensity (ex vivo liver tumor, Fig. 5h)” value [2] was 0.22 and the apoptosis population [3] was ~ 64.5%.
